PubChem BioAssay (NCI)
Several values for one entry are separate records, joined by “and”; a condition that tells them apart may be missing. Equal entries are not always repeated.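 Following 48 hours of exposure in 96-well plates, responses at five concentrations were used to interpolate endpoints linearly. TGI: concentration producing complete growth inhibition.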

What was measured:
Experiment in all cases: NCI tumour cell line growth inhibition, 48 h
786-0 renal = system: 786-0 renal
A498 renal = system: A498 renal
A549 NSCLC = system: A549 NSCLC
ACHN renal = system: ACHN renal
CAKI-1 renal = system: CAKI-1 renal
CCRF-CEM leukemia = system: CCRF-CEM leukemia
COLO 205 colon = system: COLO 205 colon
DLD-1 colon = system: DLD-1 colon
DMS 114 small cell lung = system: DMS 114 small cell lung
DMS 273 small cell lung = system: DMS 273 small cell lung
EKVX NSCLC = system: EKVX NSCLC
HCC-2998 colon = system: HCC-2998 colon
HCT-116 colon = system: HCT-116 colon
HCT-15 colon = system: HCT-15 colon
HL-60(TB) leukemia = system: HL-60(TB) leukemia
HOP-18 NSCLC = system: HOP-18 NSCLC
HOP-62 NSCLC = system: HOP-62 NSCLC
HOP-92 NSCLC = system: HOP-92 NSCLC
HT29 colon = system: HT29 colon
IGROV1 ovarian = system: IGROV1 ovarian
K-562 leukemia = system: K-562 leukemia
KM12 colon = system: KM12 colon
KM20L2 colon = system: KM20L2 colon
LOX IMVI melanoma = system: LOX IMVI melanoma
LXFL 529 NSCLC = system: LXFL 529 NSCLC
M14 melanoma = system: M14 melanoma
M19-MEL melanoma = system: M19-MEL melanoma
MALME-3M melanoma = system: MALME-3M melanoma
MCF7 breast = system: MCF7 breast
MOLT-4 leukemia = system: MOLT-4 leukemia
NCI-H226 lung = system: NCI-H226 lung
NCI-H23 lung = system: NCI-H23 lung
NCI-H460 lung = system: NCI-H460 lung
NCI-H522 lung = system: NCI-H522 lung
NCI/ADR-RES ovarian = system: NCI/ADR-RES ovarian
OVCAR-3 ovarian = system: OVCAR-3 ovarian
OVCAR-4 ovarian = system: OVCAR-4 ovarian
OVCAR-5 ovarian = system: OVCAR-5 ovarian
OVCAR-8 ovarian = system: OVCAR-8 ovarian
P388 leukemia = system: P388 leukemia
P388/ADR leukemia = system: P388/ADR leukemia
RPMI-8226 leukemia = system: RPMI-8226 leukemia
RXF 393 renal = system: RXF 393 renal
RXF-631 renal = system: RXF-631 renal
SF-268 CNS = system: SF-268 CNS
SF-295 CNS = system: SF-295 CNS
SF-539 CNS = system: SF-539 CNS
SK-MEL-2 melanoma = system: SK-MEL-2 melanoma
SK-MEL-28 melanoma = system: SK-MEL-28 melanoma
SK-MEL-5 melanoma = system: SK-MEL-5 melanoma
SK-OV-3 ovarian = system: SK-OV-3 ovarian
SN12C renal = system: SN12C renal
SN12K1 renal = system: SN12K1 renal
SNB-19 CNS = system: SNB-19 CNS
SNB-75 CNS = system: SNB-75 CNS
SNB-78 CNS = system: SNB-78 CNS
SR leukemia = system: SR leukemia
SW-620 colon = system: SW-620 colon
TK-10 renal = system: TK-10 renal
U251 CNS = system: U251 CNS
UACC-257 melanoma = system: UACC-257 melanoma
UACC-62 melanoma = system: UACC-62 melanoma
UO-31 renal = system: UO-31 renal
XF 498 CNS = system: XF 498 CNS

O=NN(CCCl)C(=O)NC1CCC(C(=O)O)CC1 (centres undefined)
TGI (786-0 renal): > 100 µM | TGI (A498 renal): > 100 µM | TGI (A549 NSCLC): > 100 µM | TGI (ACHN renal): > 100 µM | TGI (CAKI-1 renal): > 100 µM | TGI (CCRF-CEM leukemia): > 100 µM | TGI (COLO 205 colon): > 100 µM | TGI (DLD-1 colon): > 100 µM | TGI (DMS 114 small cell lung): > 100 µM and 49 µM | TGI (DMS 273 small cell lung): > 100 µM | TGI (EKVX NSCLC): > 100 µM | TGI (HCC-2998 colon): > 100 µM | TGI (HCT-116 colon): > 100 µM | TGI (HCT-15 colon): > 100 µM | TGI (HL-60(TB) leukemia): > 100 µM | TGI (HOP-18 NSCLC): > 100 µM | TGI (HOP-62 NSCLC): > 100 µM | TGI (HOP-92 NSCLC): > 100 µM | TGI (HT29 colon): > 100 µM | TGI (IGROV1 ovarian): > 100 µM | TGI (K-562 leukemia): > 100 µM | TGI (KM12 colon): > 100 µM | TGI (KM20L2 colon): > 100 µM | TGI (LOX IMVI melanoma): > 100 µM | TGI (LXFL 529 NSCLC): > 100 µM | TGI (M14 melanoma): > 100 µM | TGI (M19-MEL melanoma): > 100 µM | TGI (MALME-3M melanoma): > 100 µM | TGI (MCF7 breast): > 100 µM | TGI (MOLT-4 leukemia): > 80.9 µM | TGI (NCI-H226 lung): > 100 µM | TGI (NCI-H23 lung): > 100 µM | TGI (NCI-H460 lung): > 100 µM | TGI (NCI-H522 lung): 75.1 µM and > 100 µM | TGI (NCI/ADR-RES ovarian): > 100 µM | TGI (OVCAR-3 ovarian): > 100 µM | TGI (OVCAR-4 ovarian): > 100 µM | TGI (OVCAR-5 ovarian): > 100 µM | TGI (OVCAR-8 ovarian): > 100 µM | TGI (P388 leukemia): 16.2 µM and 19.2 µM | TGI (P388/ADR leukemia): 17.5 µM and 33.8 µM | TGI (RPMI-8226 leukemia): > 100 µM | TGI (RXF 393 renal): > 100 µM | TGI (RXF-631 renal): > 100 µM | TGI (SF-268 CNS): > 100 µM | TGI (SF-295 CNS): > 100 µM | TGI (SF-539 CNS): > 100 µM | TGI (SK-MEL-2 melanoma): > 100 µM | TGI (SK-MEL-28 melanoma): > 100 µM | TGI (SK-MEL-5 melanoma): > 100 µM | TGI (SK-OV-3 ovarian): > 100 µM | TGI (SN12C renal): > 100 µM | TGI (SN12K1 renal): > 100 µM | TGI (SNB-19 CNS): > 100 µM | TGI (SNB-75 CNS): > 100 µM | TGI (SNB-78 CNS): > 100 µM | TGI (SR leukemia): > 100 µM | TGI (SW-620 colon): > 100 µM | TGI (TK-10 renal): > 100 µM | TGI (U251 CNS): > 100 µM | TGI (UACC-257 melanoma): > 100 µM | TGI (UACC-62 melanoma): > 100 µM | TGI (UO-31 renal): > 100 µM | TGI (XF 498 CNS): > 100 µM
